Reference: US20240116985A1, “STAPLED PEPTIDES AND METHODS THEREOF” (priority 2020, published 2024)
Values after ≈ are worked out from the molar mass of the structure shown. Like-named read-outs stand apart in the source and are kept apart here.

Key:
[1] = target: T1, full-length beta-Catenin (Uniprot ID P35222) (Homo sapiens, UniProt P35222); experiment: Fluorescence polarization IC50 (beta-catenin / 5FAM-TCF4 10-53 competition); type: binding
T1 construct: 10 nM full-length beta-Catenin (Uniprot ID P35222)
T1 sequence (P35222 1-781): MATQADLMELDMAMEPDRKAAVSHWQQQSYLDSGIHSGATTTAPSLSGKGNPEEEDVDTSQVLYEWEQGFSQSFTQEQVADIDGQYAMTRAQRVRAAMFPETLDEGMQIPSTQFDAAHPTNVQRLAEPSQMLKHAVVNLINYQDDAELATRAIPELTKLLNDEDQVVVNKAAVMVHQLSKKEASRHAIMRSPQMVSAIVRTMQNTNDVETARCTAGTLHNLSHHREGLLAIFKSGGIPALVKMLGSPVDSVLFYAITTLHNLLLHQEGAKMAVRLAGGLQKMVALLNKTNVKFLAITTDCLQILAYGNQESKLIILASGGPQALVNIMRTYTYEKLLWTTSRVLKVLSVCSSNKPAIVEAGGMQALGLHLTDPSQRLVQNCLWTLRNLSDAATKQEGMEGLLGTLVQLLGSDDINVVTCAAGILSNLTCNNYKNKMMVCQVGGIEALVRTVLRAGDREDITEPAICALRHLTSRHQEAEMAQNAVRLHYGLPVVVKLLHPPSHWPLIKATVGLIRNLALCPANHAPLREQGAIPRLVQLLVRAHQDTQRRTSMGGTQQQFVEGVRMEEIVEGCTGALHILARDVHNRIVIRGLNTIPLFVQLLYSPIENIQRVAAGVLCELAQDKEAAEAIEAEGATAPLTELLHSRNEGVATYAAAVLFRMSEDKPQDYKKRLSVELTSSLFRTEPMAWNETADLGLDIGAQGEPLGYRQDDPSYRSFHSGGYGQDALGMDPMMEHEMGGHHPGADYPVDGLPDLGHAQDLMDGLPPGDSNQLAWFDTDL

Solubility in PBS = type: physicochemical
In short: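 The PBS solution was ultracentrifuged and the supernatant analyzed by HPLC. Its peak area was divided by that of a 50 μM peptide DMSO reference injection and multiplied by 50 uM to give solubility.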

CHI Log D procedure = type: physicochemical; details: for CHI Log D: pH 7.4; for chromatographic logD: pH 7.4, CHI Log D
[2] = fluorescence polarization, read-out: beta-Catenin FP IC50

SMILES | IC50 [1, 2] [nM] | IC50 ([1]; read-out: FP EC50) [nM] | Solubility (Solubility in PBS) [µM] | CHI Log D (CHI Log D procedure) | Solubility (Solubility in PBS; Solubility (uM)) [µM] | chromatographic logD (CHI Log D procedure)
CC(=O)N1CCC[C@]12CC=CCCCC1(CCCC=CCCCCCC[C@@](C)(C(=O)N[C@@H](Cc3ccsc3)C(=O)N[C@@H](Cc3csc4ccccc34)C(N)=O)NC(=O)[C@H](CC(N)=O)NC(=O)[C@H](Cc3ccccc3)NC(=O)[C@H](C)NC(=O)[C@H](C)NC(=O)[C@H](CCC(=O)O)NC(=O)[C@H](CC(=O)O)NC1=O)NC(=O)[C@H](CC(C)(C)C)NC(=O)[C@H](CC(=O)O)NC2=O (stereo partly drawn) [I-719, Ac-PL3-Asp-Npg-B5-Asp-Glu-Ala-Ala-Phe-Asn-S8-3Thi-BztA-NH2] | 38 | 38 | 28 (≈ 49.3 µg/mL) | 2.818 |  | 
CC[C@H](C)[C@@H]1NC(=O)[C@H](CC(=O)O)NC(=O)[C@]2(CC=CCCCC3(CCCC=CCCCCCC[C@@](C)(C(=O)N[C@@H](Cc4ccsc4)C(=O)N[C@@H](Cc4csc5ccccc45)C(N)=O)NC(=O)[C@H](CC(N)=O)NC(=O)[C@H](Cc4ccccc4)NC(=O)[C@H](C)NC(=O)[C@H](C)NC(=O)[C@H](CCC(=O)O)NC(=O)[C@H](CC(=O)O)NC3=O)NC1=O)CCCN2C(C)=O (stereo partly drawn) [I-720, Ac-PL3-Asp-Ile-B5-Asp-Glu-Ala-Ala-Phe-Asn-S8-3Thi-BztA-NH2] | 75 | 75 | 33 (≈ 57.7 µg/mL) | 2.665 |  | 
CC[C@H](C)[C@@H]1NC(=O)[C@H](CC(=O)O)NC(=O)[C@]2(CC=CCCCC3(CCCC=CCCCCCC[C@@](C)(C(=O)N[C@@H](Cc4ccsc4)C(=O)N[C@@H](Cc4csc5ccccc45)C(N)=O)NC(=O)[C@H](CC(N)=O)NC(=O)[C@H](Cc4ccccc4)NC(=O)[C@H](C)NC(=O)[C@H](C)NC(=O)[C@H](CCC(=O)O)NC(=O)[C@H](CC(=O)O)NC3=O)NC1=O)CCCN2C(C)=O (stereo partly drawn) [I-721, Ac-PL3-Asp-Ile-B5-Asp-Glu-Ala-Ala-Phe-Asn-S8-3Thi-BztA-NH2] | 46 | 46 | 28 (≈ 48.9 µg/mL) | 2.722 |  | 
CC[C@H](C)[C@@H]1NC(=O)[C@H](CC(=O)O)NC(=O)[C@]2(CC=CCCCC3(CCCC=CCCCCCC[C@@](C)(C(=O)N[C@@H](Cc4ccccc4)C(=O)N[C@@H](Cc4csc5ccccc45)C(=O)N[C@@H](CCC(N)=O)C(N)=O)NC(=O)[C@H](CCC(N)=O)NC(=O)[C@H](CC4CCCCC4)NC(=O)[C@H](C)NC(=O)[C@H](C)NC(=O)[C@H](CCC(=O)O)NC(=O)[C@H](CC(=O)O)NC3=O)NC1=O)CCCN2C(C)=O (stereo partly drawn) [I-722, Ac-PL3-Asp-Ile-B5-Asp-Glu-Ala-Ala-Cha-Gln-S8-Phe-BztA-Gln-NH2] | 1130 |  |  |  | 27 (≈ 51 µg/mL) | 2.52
CC[C@H](C)[C@@H]1NC(=O)[C@H](CC(=O)O)NC(=O)[C@]2(CC=CCCCC3(CCCC=CCCCCCC[C@@](C)(C(=O)N[C@@H](Cc4ccccc4)C(=O)N[C@@H](Cc4csc5ccccc45)C(=O)N[C@@H](CCC(N)=O)C(N)=O)NC(=O)[C@H](CCC(N)=O)NC(=O)[C@H](Cc4ccc(-c5ccccc5)cc4)NC(=O)[C@H](C)NC(=O)[C@H](C)NC(=O)[C@H](CCC(=O)O)NC(=O)[C@H](CC(=O)O)NC3=O)NC1=O)CCCN2C(C)=O (stereo partly drawn) [I-723, Ac-PL3-Asp-Ile-B5-Asp-Glu-Ala-Ala-Bip-Gln-S8-Phe-BztA-Gln-NH2] | 3830 |  |  |  | 29 (≈ 56.8 µg/mL) | 2.58
CC[C@H](C)[C@@H]1NC(=O)[C@H](CC(=O)O)NC(=O)[C@]2(CC=CCCCC3(CCCC=CCCCCCC[C@@](C)(C(=O)N[C@@H](Cc4ccccc4)C(=O)N[C@@H](Cc4csc5ccccc45)C(=O)N[C@@H](CCC(N)=O)C(N)=O)NC(=O)[C@H](CCC(N)=O)NC(=O)[C@H](Cc4cccc(OC)c4)NC(=O)[C@H](C)NC(=O)[C@H](C)NC(=O)[C@H](CCC(=O)O)NC(=O)[C@H](CC(=O)O)NC3=O)NC1=O)CCCN2C(C)=O (stereo partly drawn) [I-724, Ac-PL3-Asp-Ile-B5-Asp-Glu-Ala-Ala-3OMeF-Gln-S8-Phe-BztA-Gln-NH2] | 114 |  |  |  | 34 (≈ 65 µg/mL) | 2.42
CC[C@H](C)[C@@H]1NC(=O)[C@H](CC(=O)O)NC(=O)[C@]2(CC=CCCCC3(CCCC=CCCCCCC[C@@](C)(C(=O)N[C@@H](Cc4ccccc4)C(=O)N[C@@H](Cc4csc5ccccc45)C(=O)N[C@@H](CCC(N)=O)C(N)=O)NC(=O)[C@H](CCC(N)=O)NC(=O)[C@H](C(c4ccccc4)c4ccccc4)NC(=O)[C@H](C)NC(=O)[C@H](C)NC(=O)[C@H](CCC(=O)O)NC(=O)[C@H](CC(=O)O)NC3=O)NC1=O)CCCN2C(C)=O (stereo partly drawn) [I-725, Ac-PL3-Asp-Ile-B5-Asp-Glu-Ala-Ala-DipA-Gln-S8-Phe-BztA-Gln-NH2] | 5000 |  |  |  | 42 (≈ 82.3 µg/mL) | 2.61
CC[C@H](C)[C@@H]1NC(=O)[C@H](CC(=O)O)NC(=O)[C@]2(CC=CCCCC3(CCCC=CCCCCCC[C@@](C)(C(=O)N[C@@H](Cc4ccccc4)C(=O)N[C@@H](Cc4csc5ccccc45)C(=O)N[C@@H](CCC(N)=O)C(N)=O)NC(=O)[C@H](CCC(N)=O)NC(=O)[C@H](c4ccccc4)NC(=O)[C@H](C)NC(=O)[C@H](C)NC(=O)[C@H](CCC(=O)O)NC(=O)[C@H](CC(=O)O)NC3=O)NC1=O)CCCN2C(C)=O (stereo partly drawn) [I-726, Ac-PL3-Asp-Ile-B5-Asp-Glu-Ala-Ala-Phg-Gln-S8-Phe-BztA-Gln-NH2] | 5000 |  |  |  | 43 (≈ 80.4 µg/mL) | 2.34
CC[C@H](C)[C@@H]1NC(=O)[C@H](CC(=O)O)NC(=O)[C@]2(CC=CCCCC3(CCCC=CCCCCCC[C@@](C)(C(=O)N[C@@H](Cc4ccccc4)C(=O)N[C@@H](Cc4csc5ccccc45)C(=O)N[C@@H](CCC(N)=O)C(N)=O)NC(=O)[C@H](CCC(N)=O)NC(=O)[C@H](CC(C)(C)C)NC(=O)[C@H](C)NC(=O)[C@H](C)NC(=O)[C@H](CCC(=O)O)NC(=O)[C@H](CC(=O)O)NC3=O)NC1=O)CCCN2C(C)=O (stereo partly drawn) [I-727, Ac-PL3-Asp-Ile-B5-Asp-Glu-Ala-Ala-Npg-Gln-S8-Phe-BztA-Gln-NH2] | 5000 |  |  |  | 26 (≈ 48.4 µg/mL) | 2.41
CCCC[C@@H]1NC(=O)[C@H](C)NC(=O)[C@H](C)NC(=O)[C@H](CCC(=O)O)NC(=O)[C@H](CC(=O)O)NC(=O)C2(CCCC=CCCCCCC[C@@](C)(C(=O)N[C@@H](Cc3ccccc3)C(=O)N[C@@H](Cc3csc4ccccc34)C(=O)N[C@@H](CCC(N)=O)C(N)=O)NC(=O)[C@H](CCC(N)=O)NC1=O)CCCC=CC[C@]1(CCCN1C(C)=O)C(=O)N[C@@H](CC(=O)O)C(=O)N[C@@H]([C@@H](C)CC)C(=O)N2 (stereo partly drawn) [I-728, Ac-PL3-Asp-Ile-B5-Asp-Glu-Ala-Ala-nLeu-Gln-S8-Phe-BztA-Gln-NH2] | 289 |  |  |  | 38 (≈ 70.3 µg/mL) | 2.35
CC[C@H](C)[C@H](NC(=O)[C@H](CCC(N)=O)NC(=O)[C@H](Cc1csc2ccccc12)NC(=O)[C@H](Cc1ccccc1)NC(=O)[C@]1(C)CCCCCCC=CCCCC2(CCCC=CC[C@]3(CCCN3C(C)=O)C(=O)N[C@@H](CC(=O)O)C(=O)N[C@@H](CC(C)C)C(=O)N2)C(=O)N[C@@H](CC(=O)O)C(=O)N[C@@H](CCC(=O)O)C(=O)N[C@@H](C)C(=O)N[C@@H](C)C(=O)N[C@@H](Cc2ccccc2)C(=O)N[C@@H](CC(N)=O)C(=O)N1)C(N)=O (stereo partly drawn) [I-733, Ac-PL3-Asp-Leu-B5-Asp-Glu-Ala-Ala-Phe-Asn-S8-Phe-BztA-Gln-Ile-NH2] | 4260 | 4260 | 43 (≈ 85.2 µg/mL) | 2.154 |  | 
CC[C@@H](C)[C@@H](NC(=O)[C@H](CCC(N)=O)NC(=O)[C@H](Cc1csc2ccccc12)NC(=O)[C@H](Cc1ccccc1)NC(=O)[C@]1(C)CCCCCCC=CCCCC2(CCCC=CC[C@]3(CCCN3C(C)=O)C(=O)N[C@@H](CC(=O)O)C(=O)N[C@@H](CC(C)C)C(=O)N2)C(=O)N[C@@H](CC(=O)O)C(=O)N[C@@H](CCC(=O)O)C(=O)N[C@@H](C)C(=O)N[C@@H](C)C(=O)N[C@@H](Cc2ccccc2)C(=O)N[C@@H](CC(N)=O)C(=O)N1)C(N)=O (stereo partly drawn) [I-735, Ac-PL3-Asp-Leu-B5-Asp-Glu-Ala-Ala-Phe-Asn-S8-Phe-BztA-Gln-dIle-NH2] | 246 | 246 | 43 (≈ 85.2 µg/mL) | 2.738 |  | 
CC(=O)N1CCC[C@]12CC=CCCCC1(CCCC=CCCCCCC[C@@](C)(C(=O)N[C@@H](Cc3ccccc3)C(=O)N[C@@H](Cc3csc4ccccc34)C(=O)N[C@@H](CCC(N)=O)C(=O)NC(C)(C)C(N)=O)NC(=O)[C@H](CC(N)=O)NC(=O)[C@H](Cc3ccccc3)NC(=O)[C@H](C)NC(=O)[C@H](C)NC(=O)[C@H](CCC(=O)O)NC(=O)[C@H](CC(=O)O)NC1=O)NC(=O)[C@H](CC(C)C)NC(=O)[C@H](CC(=O)O)NC2=O (stereo partly drawn) [I-737, Ac-PL3-Asp-Leu-B5-Asp-Glu-Ala-Ala-Phe-Asn-S8-Phe-BztA-Gln-Aib-NH2] | 353 |  |  |  | 44 (≈ 86 µg/mL) | 2.73
